The series in a line: recombinant UMI read abundance after kanamycin selection (control-corrected) (log10(CPM+1)); higher = more efficient recombination; extreme values may be limits of the assay; sequences stand for … in AGTGCAGAGAAAATCGGCCAGTTTTCTCTGCCTGCAGTCCGCATGCCGTGGGACCCCTTGGGTTCTAACCTGTTGCCTAGATTTATGCAGCGGACTGCCTTTCTCCCAAAGTGATAAACCGG…AGGTTGGTTTCACT; site = the 11-nt donor. The method, boiled down: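 Two replicates each of selected and unselected plating were used in this pooled Escherichia coli screen of donor and donor-binding-loop pairs for the IS621 bridge recombinase. Selection was with IPTG (0.07 mM) and kanamycin. Counts of recombinant UMIs, amplified across the donor–target junction, were converted to CPM, averaged, scaled by control-derived factors and reported as log10(CPM+1).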
With “GAGCTCACATGGACCGGTTTTCCCGGTAATCCGTATTTGAT (site GAGCCCACTAT)”, the “recombinant UMI read abundance (log10)” value is 0.905. In the case of “GAGCTCACATGGACCGGTTTTCCCGGTAATCCGTATTTGAT (site GAGCGCACTAT)” it was 0; in that of “GAGCTCACATGGACCGGTTTTCCCGGTAATCCGTATTTGAT (site GAGCTAACTAT)”, 0.

As for “GAGCTCACATGGACCGGTTTTCCCGGTAATCCGTATTTGAT (site GAGCTCACTAA)”, the “recombinant UMI read abundance (log10)” value worked out at 0.00273. Regarding “GAGCTCACATGGACCGGTTTTCCCGGTAATCCGTATTTGAT (site GAGCTCACTAC)”, the “recombinant UMI read abundance (log10)” value was 0. As for “GAGCTCACATGGACCGGTTTTCCCGGTAATCCGTATTTGAT (site GAGCTCACTAG)”, the figure is 0.209; as for “GAGCTCACATGGACCGGTTTTCCCGGTAATCCGTATTTGAT (site GAGCTCACTAT)”, 2.18.

For the sequence “GAGCTCACATGGACCGGTTTTCCCGGTAATCCGTATTTGAT (site GAGCTCACTCT)”, the “recombinant UMI read abundance (log10)” value turned out to be 0.206. Turning to “GAGCTCACATGGACCGGTTTTCCCGGTAATCCGTATTTGAT (site GAGCTCACTGT)”, the “recombinant UMI read abundance (log10)” value was 0.768. As for “GAGCTCACATGGACCGGTTTTCCCGGTAATCCGTATTTGAT (site GAGCTCACTTT)”, the “recombinant UMI read abundance (log10)” value was determined as 0.125. As for “GAGCTCACATGGACCGGTTTTCCCGGTAATCCGTATTTGAT (site GAGCTCCCTAT)”, the figure is 0.00734.

As for “GAGCTCACATGGACCGGTTTTCCCGGTAATCCGTATTTGAT (site GAGCTCGCTAT)”, the “recombinant UMI read abundance (log10)” value is 0.318. In the case of “GAGCTCACATGGACCGGTTTTCCCGGTAATCCGTATTTGAT (site GAGCTCTCTAT)”, the “recombinant UMI read abundance (log10)” value turned out to be 0.783.

On to “GAGCTCACATGGACCGGTTTTCCCGGTAATCCGTATTTGAT (site GAGCTGACTAT)”, for which the “recombinant UMI read abundance (log10)” value stood at 0.0158. As for “GAGCTCACATGGACCGGTTTTCCCGGTAATCCGTATTTGAT (site GAGCTTACTAT)”, the “recombinant UMI read abundance (log10)” value worked out at 0.342. As for “GAGCTCACATGGACCGGTTTTCCCGGTAATCCGTATTTGAT (site GAGGTCACTAT)”, the figure is 0.0104; as for “GAGCTCACATGGACCGGTTTTCCCGGTAATCCGTATTTGAT (site GAGTTCACTAT)”, 0.209; as for “GAGCTCACATGGACCGGTTTTCCCGGTAATCCGTATTTGAT (site GATCTCACTAT)”, 0.0468. On to “GAGCTCACATGGACCGGTTTTCCCGGTAATCCGTATTTGAT (site GCGCTCACTAT)”, for which the “recombinant UMI read abundance (log10)” value worked out at 0.011. In the case of “GAGCTCACATGGACCGGTTTTCCCGGTAATCCGTATTTGAT (site GGGCTCACTAT)” it was 0.394. In the case of “GAGCTCACATGGACCGGTTTTCCCGGTAATCCGTATTTGAT (site GTGCTCACTAT)”, the “recombinant UMI read abundance (log10)” value stood at 0.296. For “GAGCTCACATGGACCGGTTTTCCCGGTAATCCGTATTTGAT (site TAGCTCACTAT)”, the “recombinant UMI read abundance (log10)” value worked out at 1.66. As for “GAGCTCTCATGGACCGGTTTTCCCGGTAATCCGTATTTGAC (site GAGCTCTCTGT)”, the figure is 3.55. In the case of “GAGCTTACATGGACCGGTTTTCCCGGTAATCCGTATTTGAT (site GAGCTAACTAT)” it was 0.136; in that of “GAGCTTACATGGACCGGTTTTCCCGGTAATCCGTATTTGAT (site GAGCTCACTAT)”, 0.0125. In the case of “GAGCTTACATGGACCGGTTTTCCCGGTAATCCGTATTTGAT (site GAGCTGACTAT)” it was 0.0138; in that of “GAGCTTACATGGACCGGTTTTCCCGGTAATCCGTATTTGAT (site GAGCTTACTAT)”, 1.77. Consider “GAGGAGGCATGGACCGGTTTTCCCGGTAATCCGTATTTGTG (site GAGGAGGCTCA)”, for which the “recombinant UMI read abundance (log10)” value stood at 0.576. As to “GAGGAGGCATGGACCGGTTTTCCCGGTAATCCGTATTTGTG (site GCGGAGGCTCA)”, the “recombinant UMI read abundance (log10)” value was determined as 0.367. As for “GAGGAGGCATGGACCGGTTTTCCCGGTAATCCGTATTTGTG (site GGGGAGGCTCA)”, the figure is 0.0134; as for “GAGGAGGCATGGACCGGTTTTCCCGGTAATCCGTATTTGTG (site GTGGAGGCTCA)”, 0.26; as for “GAGGCAACATGGACCGGTTTTCCCGGTAATCCGTATTTGCT (site GAGGCAACTAG)”, 1.66.

As for “GAGGGTTCATGGACCGGTTTTCCCGGTAATCCGTATTTGCG (site GAGGGTTCTCG)”, the “recombinant UMI read abundance (log10)” value amounted to 2.63.

On to “GAGGTTCCATGGACCGGTTTTCCCGGTAATCCGTATTTGGC (site GAGGTTCCTGC)”, for which the “recombinant UMI read abundance (log10)” value amounted to 0. As for “GAGTAATCATGGACCGGTTTTCCCGGTAATCCGTATTTGGG (site GAGTAATCTCC)”, the figure is 1.57. In the case of “GAGTAGGCATGGACCGGTTTTCCCGGTAATCCGTATTTGAT (site GAGTAGGCTAT)” it was 1.96; in that of “GAGTAGGCATGGACCGGTTTTCCCGGTAATCCGTATTTGGG (site GAGTAGGCTCC)”, 0.566; in that of “GAGTCATCATGGACCGGTTTTCCCGGTAATCCGTATTTGGT (site GAGTCATCTAC)”, 1.02. In the case of “GAGTCCCCATGGACCGGTTTTCCCGGTAATCCGTATTTGTC (site GAGTCCCCTGA)” it was 0.99. As for “GAGTGATCATGGACCGGTTTTCCCGGTAATCCGTATTTGCT (site GAGTGATCTAG)”, the “recombinant UMI read abundance (log10)” value turned out to be 2.62. In the case of “GAGTTCGCATGGACCGGTTTTCCCGGTAATCCGTATTTGGA (site GAGTTCGCTTC)”, the “recombinant UMI read abundance (log10)” value turned out to be 1.08.

On to “GATAAATCATGGACCGGTTTTCCCGGTAATCCGTATTTGAC (site GATAAATCTGT)”, for which the “recombinant UMI read abundance (log10)” value was 1.03. “GATAAGTCATGGACCGGTTTTCCCGGTAATCCGTATTTGCC (site GATAAGTCTGG)”: the “recombinant UMI read abundance (log10)” value amounted to 2.1. In the case of “GATACGACATGGACCGGTTTTCCCGGTAATCCGTATTTGTT (site GATACGACTAA)” it was 0.259; in that of “GATACTGCATGGACCGGTTTTCCCGGTAATCCGTATTTGCA (site GATACTGCTTG)”, 1.61; in that of “GATACTGCATGGACCGGTTTTCCCGGTAATCCGTATTTGTC (site GATACTGCTGA)”, 1.28. In the case of “GATAGGTCATGGACCGGTTTTCCCGGTAATCCGTATTTGGA (site GATAGGTCTTC)”, the “recombinant UMI read abundance (log10)” value is 1.15. As for “GATATAGCATGGACCGGTTTTCCCGGTAATCCGTATTTGGT (site GATATAGCTAC)”, the figure is 1.08; as for “GATATATCATGGACCGGTTTTCCCGGTAATCCGTATTTGCG (site GATATATCTCG)”, 1.42; as for “GATCAAACATGGACCGGTTTTCCCGGTAATCCGTATTTGAA (site GATCAAACTTT)”, 0. In the case of “GATCCCTCATGGACCGGTTTTCCCGGTAATCCGTATTTGGC (site GATCCCTCTGC)” it was 0.839; in that of “GATCCGTCATGGACCGGTTTTCCCGGTAATCCGTATTTGCG (site GATCCGTCTCG)”, 0.274. As to “GATCCTACATGGACCGGTTTTCCCGGTAATCCGTATTTGCT (site GATCCTACTAG)”, the “recombinant UMI read abundance (log10)” value was found to be 0.00962. For the sequence “GATCCTTCATGGACCGGTTTTCCCGGTAATCCGTATTTGTC (site GATCCTTCTGA)”, the “recombinant UMI read abundance (log10)” value was 0.252. For the sequence “GATCTCTCATGGACCGGTTTTCCCGGTAATCCGTATTTGAT (site GATCTCTCTAT)”, the “recombinant UMI read abundance (log10)” value stood at 0.578. In the case of “GATGACACATGGACCGGTTTTCCCGGTAATCCGTATTTGTC (site GATGACACTGA)” it was 1.18; in that of “GATGACTCATGGACCGGTTTTCCCGGTAATCCGTATTTGGT (site GATGACTCTAC)”, 2.49. In the case of “GATGCAGCATGGACCGGTTTTCCCGGTAATCCGTATTTGTA (site GATGCAGCTTA)” it was 1.62; in that of “GATGCAGCATGGACCGGTTTTCCCGGTAATCCGTATTTGTT (site GATGCAGCTAA)”, 0.749. For the sequence “GATGTACCATGGACCGGTTTTCCCGGTAATCCGTATTTGGC (site GATGTACCTGC)”, the “recombinant UMI read abundance (log10)” value stood at 0.247. In the case of “GATTACTCATGGACCGGTTTTCCCGGTAATCCGTATTTGTC (site GATTACTCTGA)”, the “recombinant UMI read abundance (log10)” value was 1.09. As for “GATTATCCATGGACCGGTTTTCCCGGTAATCCGTATTTGCC (site GATTATCCTAG)”, the figure is 0; as for “GATTATCCATGGACCGGTTTTCCCGGTAATCCGTATTTGCC (site GATTATCCTCG)”, 0; as for “GATTATCCATGGACCGGTTTTCCCGGTAATCCGTATTTGCC (site GATTATCCTGG)”, 0. Turning to “GATTATCCATGGACCGGTTTTCCCGGTAATCCGTATTTGCC (site GATTATCCTTG)”, the “recombinant UMI read abundance (log10)” value is 0. With “GATTCATCATGGACCGGTTTTCCCGGTAATCCGTATTTGCG (site GATTCATCTCG)”, the “recombinant UMI read abundance (log10)” value worked out at 1.2. Consider “GATTCGGCATGGACCGGTTTTCCCGGTAATCCGTATTTGAC (site GATTCGGCTGT)”, for which the “recombinant UMI read abundance (log10)” value came to 0.484.

Turning to “GATTGCGCATGGACCGGTTTTCCCGGTAATCCGTATTTGCG (site GATTGCGCTCG)”, the “recombinant UMI read abundance (log10)” value worked out at 0.805.

These data come from the supplement of paper PMC11208160.
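Note: IS621 bridge recombinase in Escherichia coli cells against a fixed T5 target plasmid.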
